# Measurements reported in US4138554A, “7-[D-α-(4-Hydroxy-1,5-naphthyridine-3-carboxamido)-α-phenyl (and p-hydroxyphenyl)acetamido]-3-carbamoyloxymethyl-3-cephem-4-carboxylic acids” (priority 1977, dated 1979).
# Like-named read-outs stand apart in the source and are kept apart here.
# Tests used:
# P. aeruginosa = assay: MIC by serial two-fold agar dilution (Mueller-Hinton agar), P. aeruginosa, primary screening; format: cell-based
# Description: (§1) Minimum inhibitory concentrations (MIC) of BB-S520 were determined by serial two-fold agar dilution method using Steers' apparatus on Meuller-Hinton agar plate against 31 test organisms for the primary screening and also against 61 strains of Pseudomonas aeruginosa for the secondary evaluation. The results are shown in Table 1 and Table 2 along with those of BB-S514 and sulbenicillin.
# (§2) Minimum inhibitory concentrations (MIC) of cephalosporins in the present study were determined by serial two-fold agar dilution method using Steers' apparatus on Mueller-Hinton agar plate against 31 test organisms for the primary screening and also against 61 strains of Pseudomonas aeruginosa for the secondary evaluation.
# K. pneumoniae = assay: MIC by serial two-fold agar dilution (Mueller-Hinton agar), K. pneumoniae; format: cell-based; conditions: Klebsiella pneumoniae
# Description: as §1, §2
# P. morganii = assay: MIC by serial two-fold agar dilution (Mueller-Hinton agar), P. morganii; format: cell-based
# Description: as §1, §2
# [1] = system: Gram-positive (6 strains); assay: Mean % relative activity (MIC) vs sulbenicillin, Gram-positive (6 strains); format: cell-based; conditions: Gram-positive (6 strains), from geometric means of MICs in Table 1
# Description: as §1, §2
# S. marcescens = assay: MIC by serial two-fold agar dilution (Mueller-Hinton agar), S. marcescens; format: cell-based
# Description: as §1, §2
# [2] = system: Gram-negative (19 strains); assay: Mean % relative activity (MIC) vs sulbenicillin, Gram-negative (19 strains); format: cell-based; conditions: Gram-negative (19 strains), from geometric means of MICs in Table 1
# Description: as §1, §2
# E. coli = assay: MIC by serial two-fold agar dilution (Mueller-Hinton agar), E. coli; format: cell-based; conditions: Escherichia coli
# Description: as §1, §2
# P. vulgaris = assay: MIC by serial two-fold agar dilution (Mueller-Hinton agar), P. vulgaris; format: cell-based
# Description: as §1, §2
# P. mirabilis = assay: MIC by serial two-fold agar dilution (Mueller-Hinton agar), P. mirabilis; format: cell-based
# Description: as §1, §2
# Pseudomonas (6 strains) = assay: Mean % relative activity (MIC) vs sulbenicillin, Pseudomonas (6 strains); format: cell-based; conditions: Pseudomonas (6 strains), from geometric means of MICs in Table 1
# Description: as §1, §2
# E. cloacae = assay: MIC by serial two-fold agar dilution (Mueller-Hinton agar), E. cloacae; format: cell-based; conditions: Enterobacter cloacae
# Description: as §1, §2
# Klebsiella sp. = assay: MIC by serial two-fold agar dilution (Mueller-Hinton agar), Klebsiella sp.; format: cell-based
# Description: as §1, §2
# S. aureus = assay: MIC by serial two-fold agar dilution (Mueller-Hinton agar), S. aureus; format: cell-based; conditions: Staphylococcus aureus
# Description: as §1, §2
# S. enteritidis = assay: MIC by serial two-fold agar dilution (Mueller-Hinton agar), S. enteritidis; format: cell-based
# Description: as §1, §2
# Ps. aeruginosa A9843 = assay: Median curative dose in mice, infection with Ps. aeruginosa; format: in vivo; conditions: for ED50: Pseudomonas aeruginosa, A9843, sc
# From the text: (§3) Median Curative Dose in Mgm./Kg.
# (§4) Upon Subcutaneous Injection in Mice
# S. aureus Smith = assay: Median curative dose in mice, infection with S. aureus Smith; format: in vivo; conditions: Staphylococcus aureus, sc; subcutaneous injection in mice, S. aureus Smith, Table 4; read-out: Median Curative Dose (PD50)
# From the text: as §3, §4
# E. coli Juhl = assay: Median curative dose in mice, infection with E. coli Juhl; format: in vivo; conditions: Escherichia coli, sc
# From the text: as §3, §4
# [3] = Pseudomonas aeruginosa, P. aeruginosa (2nd line), Table 1, read-out: MIC
# [4] = Pseudomonas aeruginosa, P. aeruginosa (3rd line), Table 1, read-out: MIC
# [5] = Pseudomonas aeruginosa, P. aeruginosa (4th line), Table 1, read-out: MIC
# [6] = Pseudomonas aeruginosa, P. aeruginosa (6th line), Table 1, read-out: MIC
# [7] = Morganella morganii, P. morganii, Table 1, read-out: MIC
# [8] = Serratia marcescens, S. marcescens, Table 1, read-out: MIC
# [9] = E. coli Juhl, Table 1, read-out: MIC
# [10] = E. coli NIHJ, Table 1, read-out: MIC
# [11] = E. coli, unnamed strain (3rd E. coli line), Table 1
# [12] = E. coli, unnamed strain (4th E. coli line), Table 1, read-out: MIC
# [13] = E. coli, unnamed strain (5th E. coli line), Table 1, read-out: MIC
# [14] = E. coli, unnamed strain (6th E. coli line), Table 1, read-out: MIC
# [15] = E. coli, unnamed strain (7th E. coli line), Table 1, read-out: MIC
# [16] = E. coli, unnamed strain (8th E. coli line), Table 1, read-out: MIC
# [17] = E. coli, unnamed strain (9th E. coli line), Table 1, read-out: MIC
# [18] = Proteus vulgaris, P. vulgaris, Table 1, read-out: MIC
# [19] = Proteus mirabilis, P. mirabilis, Table 1, read-out: MIC
# [20] = S. aureus BX-1633, Table 1, read-out: MIC
# [21] = S. aureus Smith (1st line), Table 1, read-out: MIC
# [22] = S. aureus Smith (2nd line), Table 1, read-out: MIC
# [23] = S. aureus, unnamed strain (4th S. aureus line), Table 1, read-out: MIC
# [24] = S. aureus, unnamed strain (5th S. aureus line), Table 1, read-out: MIC
# [25] = S. aureus, unnamed strain (6th S. aureus line), Table 1, read-out: MIC
# [26] = Salmonella enterica, S. enteritidis, Table 1, read-out: MIC
structure (smiles),measurement,setting,value
CC(=O)OCC1=C(C(=O)O)N2C(=O)C(NC(=O)C(NC(=O)c3cnc4cccnc4c3O)c3ccccc3)C2SC1 (centres unmarked) [BB-S514],MIC,"P. aeruginosa; Pseudomonas aeruginosa, P. aeruginosa (1st line), Table 1, read-out: MIC",3.1 µg/mL
same,MIC,P. aeruginosa; [3],3.1 µg/mL
same,MIC,P. aeruginosa; [4],6.3 µg/mL
same,MIC,P. aeruginosa; [5],25 µg/mL
same,MIC,"P. aeruginosa; Pseudomonas aeruginosa, P. aeruginosa (5th line), Table 1, read-out: MIC",6.3 µg/mL
same,MIC,P. aeruginosa; [6],3.1 µg/mL
same,MIC,"K. pneumoniae; K. pneumoniae, Table 1",6.3 µg/mL
same,MIC,P. morganii; [7],> 100 µg/mL
same,Mean % Relative Activity (Sulbenicillin = 100%),[1],71%
same,MIC,S. marcescens; [8],> 100 µg/mL
same,Mean % Relative Activity (Sulbenicillin = 100%),[2],96%
same,MIC,E. coli; [9],12.5 µg/mL
same,MIC,E. coli; [10],0.1 µg/mL
same,MIC,E. coli; [11],0.4 µg/mL
same,MIC,E. coli; [12],0.4 µg/mL
same,MIC,E. coli; [13],> 100 µg/mL
same,MIC,E. coli; [14],6.3 µg/mL
same,MIC,E. coli; [15],> 100 µg/mL
same,MIC,E. coli; [16],12.5 µg/mL
same,MIC,E. coli; [17],0.8 µg/mL
same,MIC,P. vulgaris; [18],25 µg/mL
same,MIC,P. mirabilis; [19],0.8 µg/mL
same,Mean % Relative Activity (Sulbenicillin = 100%),Pseudomonas (6 strains),283%
same,MIC,"E. cloacae; E. cloacae (1st line), Table 1",25 µg/mL
same,MIC,"E. cloacae; E. cloacae (2nd line), Table 1",50 µg/mL
same,MIC,"E. cloacae; E. cloacae (3rd line), Table 1",25 µg/mL
same,MIC,"Klebsiella sp.; Klebsiella sp., Table 1, read-out: MIC",12.5 µg/mL
same,MIC,S. aureus; [20],3.1 µg/mL
same,MIC,S. aureus; [21],3.1 µg/mL
same,MIC,S. aureus; [22],6.3 µg/mL
same,MIC,S. aureus; [23],25 µg/mL
same,MIC,S. aureus; [24],6.3 µg/mL
same,MIC,S. aureus; [25],> 100 µg/mL
same,MIC,S. enteritidis; [26],6.3 µg/mL
"CC1(C)S[C@@H]2[C@H](NC(=O)C(c3ccccc3)S(=O)(=O)O)C(=O)N2[C@H]1C(=O)O (some centres unmarked) [Sulbenicillin, sulbenicillin]",MIC,"P. aeruginosa; P. aeruginosa (5th line), Table 1",12.5 Mcg./Ml.
same,MIC,"P. aeruginosa; P. aeruginosa A15150, Table 6",12.5 µg/mL
same,MIC,"P. aeruginosa; P. aeruginosa A20229, Table 6",12.5 µg/mL
same,MIC,P. aeruginosa; Pseudomonas aeruginosa,12.5 µg/mL
same,MIC,P. aeruginosa; [3],25 µg/mL
same,MIC,P. aeruginosa; [4],25 µg/mL
same,MIC,P. aeruginosa; [5],100 µg/mL
same,MIC,P. aeruginosa; [6],3.1 µg/mL
same,MIC,"P. aeruginosa; Pseudomonas aeruginosa, P. aeruginosa A9843, Table 6, read-out: MIC",25 µg/mL
same,MIC,"P. aeruginosa; Pseudomonas aeruginosa, P. aeruginosa A9930, Table 6, read-out: MIC",25 µg/mL
same,MIC,"P. aeruginosa; Pseudomonas aeruginosa, P. aeruginosa A20717, Table 6, read-out: MIC",100 µg/mL
same,MIC,"K. pneumoniae; K. pneumoniae A9977, Table 6",3.1 µg/mL
same,MIC,"K. pneumoniae; K. pneumoniae, Table 1",6.3 µg/mL
same,MIC,P. morganii; [7],> 100 µg/mL
same,MIC,"P. morganii; P. morganii A9553, Table 6",> 100 µg/mL
same,MIC,"S. marcescens; S. marcescens A20019, Table 6",6.3 µg/mL
same,MIC,S. marcescens; [8],6.3 µg/mL
same,ED50,"Ps. aeruginosa A9843; mice, P. aerug. A9843 infection, Table 5, read-out: PD50",140 mg/kg
same,ED50,"Ps. aeruginosa A9843; subcutaneous injection in mice, Ps. aeruginosa, Table 4, read-out: Median Curative Dose (PD50)",85 mg/kg
same,PD50,"Ps. aeruginosa A9843; mice, P. aerug. A9843 infection, Table 5",130 mg/kg
same,MIC,"E. coli; E. coli A9435, Table 6, read-out: MIC",12.5 µg/mL
same,MIC,"E. coli; E. coli A9844, Table 6, read-out: MIC",0.8 µg/mL
same,MIC,"E. coli; E. coli A10664, Table 6, read-out: MIC",1.6 µg/mL
same,MIC,"E. coli; E. coli A20366, Table 6, read-out: MIC",> 100 µg/mL
same,MIC,"E. coli; E. coli A20520, Table 6, read-out: MIC",6.3 µg/mL
same,MIC,"E. coli; E. coli A20732, Table 6, read-out: MIC",100 µg/mL
same,MIC,"E. coli; E. coli A20898, Table 6, read-out: MIC",> 100 µg/mL
same,MIC,"E. coli; E. coli Juhl A15119, Table 6, read-out: MIC",3.1 µg/mL
same,MIC,E. coli; [9],1.6 µg/mL
same,MIC,E. coli; [10],0.8 µg/mL
same,MIC,"E. coli; E. coli NIHJ, Table 6, read-out: MIC",0.8 µg/mL
same,MIC,E. coli; [11],0.8 µg/mL
same,MIC,E. coli; [12],1.6 µg/mL
same,MIC,E. coli; [13],> 100 µg/mL
same,MIC,E. coli; [14],6.3 µg/mL
same,MIC,E. coli; [15],> 100 µg/mL
same,MIC,E. coli; [16],> 100 µg/mL
same,MIC,E. coli; [17],6.3 µg/mL
same,MIC,"P. vulgaris; P. vulgaris A9539, Table 6",3.1 µg/mL
same,MIC,P. vulgaris; [18],3.1 µg/mL
same,MIC,"P. mirabilis; P. mirabilis A9900, Table 6",0.8 µg/mL
same,MIC,P. mirabilis; [19],0.8 µg/mL
same,MIC,"E. cloacae; E. cloacae (1st line), Table 1",12.5 µg/mL
same,MIC,"E. cloacae; E. cloacae (2nd line), Table 1",> 100 µg/mL
same,MIC,"E. cloacae; E. cloacae (3rd line), Table 1",12.5 µg/mL
same,MIC,"E. cloacae; E. cloacae A9656, Table 6",12.5 µg/mL
same,MIC,"E. cloacae; E. cloacae A9657, Table 6",> 100 µg/mL
same,MIC,"E. cloacae; E. cloacae A9659, Table 6",12.5 µg/mL
same,MIC,Klebsiella sp.; Klebsiella,12.5 µg/mL
same,MIC,"Klebsiella sp.; Klebsiella sp. A20452, Table 6",12.5 µg/mL
same,ED50,S. aureus Smith,2.4 mg/kg
same,MIC,S. aureus; [20],3.1 µg/mL
same,MIC,"S. aureus; S. aureus BX-1633 A9606, Table 6, read-out: MIC",3.1 µg/mL
same,MIC,S. aureus; [21],1.6 µg/mL
same,MIC,S. aureus; [22],6.3 µg/mL
same,MIC,"S. aureus; S. aureus Smith A9537, Table 6, read-out: MIC",3.1 µg/mL
same,MIC,"S. aureus; S. aureus Smith A15907, Table 6",12.5 µg/mL
same,MIC,"S. aureus; S. aureus Smith A20239, Table 6, read-out: MIC",6.3 µg/mL
same,MIC,"S. aureus; S. aureus Smith A20240, Table 6, read-out: MIC",6.3 µg/mL
same,MIC,"S. aureus; S. aureus Smith A20701, Table 6, read-out: MIC",50 µg/mL
same,MIC,S. aureus; [23],25 µg/mL
same,MIC,S. aureus; [24],3.1 µg/mL
same,MIC,S. aureus; [25],50 µg/mL
same,MIC,"S. enteritidis; S. enteritidis A9531, Table 6",1.6 µg/mL
same,MIC,S. enteritidis; [26],1.6 µg/mL
same,ED50,"E. coli Juhl; mice, E. coli Juhl infection, Table 5, read-out: PD50",8.5 mg/kg
same,ED50,"E. coli Juhl; subcutaneous injection in mice, E. coli Juhl, Table 4, read-out: Median Curative Dose (PD50)",9.5 mg/kg
